Assay results taken from ChEMBL document CHEMBL4616595, “Targeted suppression of metastasis regulatory transcription factor SOX2 in various cancer cell lines using a sequence-specific designer pyrrole-imidazole polyamide” (Bioorg Med Chem, 2020).
Calls of active or inactive are those of the source. No cut-off for these calls is given here.

What was measured:
U2OS [1] = assay: Cell cycle arrest in human U2OS cells assessed as reduction in accumulation at G2/M phase at 2 uM to 5 uM after 48 hrs by propidium iodide staining based flow cytometry analysis; format: functional
SW-620 [2] = assay: Up regulation of p27kip1 mRNA expression in human SW620 cells incubated for 48 hrs by qRT-PCR analysis; format: functional, cell-based
SOX2 promoter DNA [3] = assay: Binding affinity to SOX2 promoter 5'-CTTTGTT-3' DNA in human SW620 cells assessed as down regulation of NFKB1 mRNA expression at 2 uM incubated for 48 hrs by qRT-PCR analysis; format: cell-based; conditions: SW-620
MKN-45 = assay: Cell cycle arrest in human MKN45 cells assessed as reduction in accumulation at G2/M phase at 2 uM to 5 uM after 48 hrs by propidium iodide staining based flow cytometry analysis; format: functional
SOX2 promoter DNA [4] = assay: Binding affinity to SOX2 promoter 5'-CTTTGTT-3' DNA in human SW620 cells assessed as down regulation of VIM mRNA expression at 2 uM incubated for 48 hrs by qRT-PCR analysis; format: cell-based; conditions: SW-620
SOX2 promoter DNA [5] = assay: Binding affinity to SOX2 promoter 5'-CTTTGTT-3' DNA in human SW620 cells assessed as upregulation of APC mRNA expression incubated for 48 hrs by qRT-PCR analysis; format: cell-based; conditions: SW-620
SOX2 promoter DNA [6] = assay: Binding affinity to SOX2 promoter 5'-CTTTGTT-3' DNA in human SW620 cells assessed as downregulation S100A4 mRNA expression incubated for 48 hrs by qRT-PCR analysis; format: cell-based; conditions: SW-620
SOX2 promoter DNA [7] = assay: Binding affinity to SOX2 promoter 5'-CTTTGTT-3' DNA in human U2OS cells assessed as reduction in SOX2 protein level incubated for 48 hrs by immunostaining based FACS analysis; format: cell-based
SOX2 promoter DNA [8] = assay: Binding affinity to SOX2 promoter 5'-CTTTGTT-3' DNA in human SW620 cells assessed as down regulation of CDH2 gene expression at 2 uM incubated for 48 hrs by Cy3-labelled cRNA-based microarray analysis; format: cell-based; conditions: SW-620
SOX2 promoter DNA [9] = assay: Binding affinity to SOX2 promoter 5'-CTTTGTT-3' DNA in human SW620 cells assessed as reduction in SOX2 protein level by measuring SOX2 level at 2 uM incubated for 48 hrs by immunostaining based FACS analysis (reference value: 55.9%); format: cell-based; set-up: scale not given: the % may be the effect or the level left; conditions: SW-620
SOX2 promoter DNA [10] = assay: Binding affinity to SOX2 promoter 5'-CTTTGTT-3' DNA in human SW620 cells assessed as down regulation of […] mRNA expression at 2 uM incubated for 48 hrs by qRT-PCR analysis; format: cell-based; conditions: SW-620
SW-620 [11] = assay: Antiinvasive activity in human SW620 cells assessed as reduction in cell invasion at 5 uM incubated for 72 hrs by crystal violet staining based assay relative to untreated control; format: functional
SOX2 promoter DNA [12] = assay: Binding affinity to SOX2 promoter 5'-CTTTGTT-3' DNA in human SW620 cells assessed as down regulation of Cyclin D1 mRNA expression at 2 uM incubated for 48 hrs by qRT-PCR analysis; format: cell-based; conditions: SW-620
SOX2 promoter DNA [13] = assay: Binding affinity to SOX2 promoter 5'-CTTTGTT-3' DNA in human SW620 cells assessed as down regulation of PROM1 gene expression at 2 uM incubated for 48 hrs by Cy3-labelled cRNA-based microarray analysis; format: cell-based; conditions: SW-620
SOX2 promoter DNA [14] = assay: Binding affinity to SOX2 promoter 5'-CTTTGTT-3' DNA in human SW620 cells assessed as downregulation DVL2 mRNA expression incubated for 48 hrs by qRT-PCR analysis; format: cell-based; conditions: SW-620
B16-F10 = assay: Anti-metastasis activity in mouse B16/F10 cells implanted in C57BL/6N mouse assessed as reduction in lung metastatic nodules at 1 mg/kg ip dosed every third day and measured on day 21 relative to untreated control; format: functional
SW-620 [15] = assay: Up regulation of FASL mRNA expression in human SW620 cells incubated for 48 hrs by qRT-PCR analysis; format: functional, cell-based
SW-620 [16] = assay: Cell cycle arrest in human SW620 cells assessed as reduction in accumulation at G2/M phase at 2 uM to 5 uM after 48 hrs by propidium iodide staining based flow cytometry analysis; format: functional
SW-620 [17] = assay: Up regulation of p21cip1 mRNA expression in human SW620 cells incubated for 48 hrs by qRT-PCR analysis; format: functional, cell-based
SOX2 promoter DNA [18] = assay: Binding affinity to SOX2 promoter 5'-CTTTGTT-3' DNA in human SW620 cells assessed as downregulation WNT2B mRNA expression incubated for 48 hrs by qRT-PCR analysis; format: cell-based; conditions: SW-620
SOX2 promoter DNA [19] = assay: Binding affinity to SOX2 promoter 5'-CTTTGTT-3' DNA in mouse Hepa1 cells assessed as reduction in SOX2 mRNA expression incubated for 48 hrs by qRT-PCR analysis; format: cell-based
SOX2 promoter DNA [20] = assay: Binding affinity to SOX2 promoter 5'-CTTTGTT-3' DNA (unknown origin) transfected in human SW620 cells at 2 to 10 uM incubated for 24 hrs by 6xO/s-Luc reporter gene based Steady-Glo luciferase assay; format: cell-based; conditions: SW-620
SOX2 promoter DNA [21] = assay: Binding affinity to SOX2 promoter 5'-CTTTGTT-3' DNA in human SW620 cells assessed as down regulation of stemness associated PTCH1 mRNA expression at 2 uM incubated for 48 hrs by qRT-PCR analysis; format: cell-based; conditions: SW-620
MCF7 = assay: Cell cycle arrest in human MCF7 cells assessed as increase in accumulation at sub-G1/G1 phase at 2 uM to 5 uM after 48 hrs by propidium iodide staining based flow cytometry analysis; format: functional
SW-620 [22] = assay: Up regulation of GADD45A mRNA expression in human SW620 cells incubated for 48 hrs by qRT-PCR analysis; format: functional, cell-based
SOX2 promoter DNA [23] = assay: Binding affinity to SOX2 promoter 5'-CTTTGTT-3' DNA in human SW620 cells assessed as up regulation of CDH1 mRNA expression at 2 uM incubated for 48 hrs by qRT-PCR analysis; format: cell-based; conditions: SW-620
SOX2 promoter DNA [24] = assay: Binding affinity to SOX2 promoter 5'-CTTTGTT-3' DNA in human U2OS cells assessed as reduction in SOX2 mRNA expression incubated for 48 hrs by qRT-PCR analysis; format: cell-based
SOX2 promoter DNA [25] = assay: Binding affinity to SOX2 promoter 5'-CTTTGTT-3' DNA in human SW620 cells assessed as downregulation DVL3 mRNA expression incubated for 48 hrs by qRT-PCR analysis; format: cell-based; conditions: SW-620
SOX2 promoter DNA [26] = assay: Binding affinity to SOX2 promoter 5'-CTTTGTT-3' DNA in human SW620 cells assessed as down regulation of stemness associated BMP-4 mRNA expression at 2 uM incubated for 48 hrs by qRT-PCR analysis; format: cell-based; conditions: SW-620
U2OS [27] = assay: Antiproliferative activity against human U2OS cells assessed as inhibition of cell proliferation incubated for 48 hrs by [3H]thymidine incorporation based scintillation counting method; format: functional
SOX2 promoter DNA [28] = assay: Binding affinity to SOX2 promoter 5'-CTTTGTT-3' DNA in human SW620 cells assessed as down regulation of ZEB2 mRNA expression at 2 uM incubated for 48 hrs by qRT-PCR analysis; format: cell-based; conditions: SW-620
SW-620 [29] = assay: Cytotoxicity against human SW620 cells assessed as reduction in cell viability incubated for 48 hrs by MTT assay; format: functional, cell-based

SMILES: CC(=O)Nc1cc(C(=O)Nc2cc(C(=O)Nc3cc(C(=O)NCCC(=O)Nc4cn(C)c(C(=O)Nc5cc(C(=O)NCCCC(=O)Nc6cc(C(=O)Nc7cc(C(=O)NCCC(=O)Nc8cc(C(=O)Nc9cc(C(=O)Nc%10cn(C)c(C(=O)NCCCN(C)C)n%10)n(C)c9)n(C)c8)n(C)c7)n(C)c6)n(C)c5)n4)n(C)c3)n(C)c2)n(C)c1
- Activity (U2OS [1]): Active
- Activity (SW-620 [2]): Active
- Activity (SOX2 promoter DNA [3]): Active
- Activity (MKN-45): Active
- Activity (SOX2 promoter DNA [4]): Active
- Activity (SOX2 promoter DNA [5]): Active
- Activity (SOX2 promoter DNA [6]): Active
- Activity (SOX2 promoter DNA [7]): Dose-dependent effect
- Activity (SOX2 promoter DNA [8]): Active
- Activity (SOX2 promoter DNA [9]): 37.4%
- Activity (SOX2 promoter DNA [10]): Active
- fold change (FC) (SW-620 [11]): 4
- Activity (SOX2 promoter DNA [12]): Active
- Activity (SOX2 promoter DNA [13]): Active
- Activity (SOX2 promoter DNA [14]): Active
- fold change (FC) (B16-F10): 4
- Activity (SW-620 [15]): Active
- Activity (SW-620 [16]): Active
- Activity (SW-620 [17]): Active
- Activity (SOX2 promoter DNA [18]): Active
- Activity (SOX2 promoter DNA [19]): Active
- Activity (SOX2 promoter DNA [20]): Active
- Activity (SOX2 promoter DNA [21]): Active
- Activity (MCF7): Active
- Activity (SW-620 [22]): Active
- Activity (SOX2 promoter DNA [23]): Active
- Activity (SOX2 promoter DNA [24]): Active
- Activity (SOX2 promoter DNA [25]): Active
- Activity (SOX2 promoter DNA [26]): Active
- inhibition (U2OS [27]): Dose-dependent effect
- Activity (SOX2 promoter DNA [28]): Active
- Activity (SW-620 [29]): Dose-dependent effect
